Several values for one entry are separate records, joined by “and”; a condition that tells them apart may be missing. Equal values may be shown once. Read-outs that look alike come from different tables or passages of the source.
Key:
SLC22A1 [1] = biological target: T1, SLC22A1 (Homo sapiens, UniProt O15245); parameters: expressed in transfected cells; method as in Jung et al., 2008; conditions: 1-methyl-4-phenylpyridinium as substrate, HEK-293 cells, 1 min incubation; efavirenz assessed only at 5 μM; ref Jung et al., 2008; cited from earlier work
T1 sequence (O15245 1-554): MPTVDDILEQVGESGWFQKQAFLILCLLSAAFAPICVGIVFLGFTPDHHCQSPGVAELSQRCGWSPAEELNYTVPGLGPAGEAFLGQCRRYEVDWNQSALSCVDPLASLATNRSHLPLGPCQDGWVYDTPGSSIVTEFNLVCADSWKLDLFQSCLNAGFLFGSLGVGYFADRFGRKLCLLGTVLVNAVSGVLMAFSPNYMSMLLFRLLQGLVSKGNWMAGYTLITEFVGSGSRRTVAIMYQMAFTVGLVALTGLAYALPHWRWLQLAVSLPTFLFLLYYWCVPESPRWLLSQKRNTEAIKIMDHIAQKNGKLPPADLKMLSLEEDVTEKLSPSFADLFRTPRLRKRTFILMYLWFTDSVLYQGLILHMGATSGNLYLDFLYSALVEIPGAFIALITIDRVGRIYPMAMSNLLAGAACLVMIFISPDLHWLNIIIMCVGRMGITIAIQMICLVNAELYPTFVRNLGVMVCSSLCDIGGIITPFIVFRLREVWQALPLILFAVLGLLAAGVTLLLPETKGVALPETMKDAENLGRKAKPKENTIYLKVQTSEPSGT

SLC22A1 [2] = biological target: T1, SLC22A1; conditions: 30 min
Source text: Using intracellular radioactivity readings, the amount of drug in mock transfected cells was compared to SLC22A1-overexpressing KCL22 cells (% ± SD).

[3] = ref Villani et al., 1999; cited from earlier work
SLC22A1 [4] = biological target: T1, SLC22A1; assay: SLC22A1 IC50 determination (inhibition of tetraethylammonium accumulation over a concentration range); type: cell-based; parameters: expressed in transfected cells; conditions: for TEA accumulation when 100 μM inhibitor used (%compared to inhibitor-free control): tetraethylammonium 5.5 μM, 30 min
SLC22A1 [5] = biological target: T1, SLC22A1; assay: Tetraethylammonium accumulation in SLC22A1-overexpressing KCL22 cells co-incubated with 50 μM test drug; conditions: for Reduction in cellular accumulation (of tetraethylammonium): 50 μM drug, SLC22A1-overexpressing KCL22 cells
SLC22A1 [6] = biological target: T1, SLC22A1; parameters: expressed in transfected cells; method as in Zhang et al., 2000; conditions: ref Zhang et al., 2000; cited from earlier work
[7] = SLC22A1-overexpressing KCL22 cells, 100 μM inhibitor

COC(=O)N[C@H](C(=O)N[C@@H](Cc1ccccc1)[C@@H](O)CN(Cc1ccc(-c2ccccn2)cc1)NC(=O)[C@@H](NC(=O)OC)C(C)(C)C)C(C)(C)C [atazanavir]
SLC22A1 inhibition in vitro (SLC22A1 [1]): no SLC22A1-inhibiting capability

O=C1Nc2ccc(Cl)cc2[C@@](C#CC2CC2)(C(F)(F)F)O1 [efavirenz]
Accumulation in SLC22A1-expressing cells compared to mock-transfected cells (% higher) (SLC22A1 [2]; human, 20 μM): 17%
Amount of substrate in mock-transfected cells compared to SLC22A1-overexpressing cells (% less) (SLC22A1 [2]; human, 20 μM): 17%
Maximum plasma concentration of efavirenz [3]: 12.7 µM
TEA accumulation when 100 μM inhibitor used (%compared to inhibitor-free control) (SLC22A1 [4]; [7]): 39.7%
IC50 (SLC22A1 [4]; read-out: Absolute IC50): 21.8 µM
IC50 (SLC22A1 [4]; read-out: Relative IC50): 7.4 µM
SLC22A1 inhibition in vitro (SLC22A1 [1]): did not show SLC22A1 inhibition
Reduction in cellular accumulation (of tetraethylammonium) (SLC22A1 [5]): 50.0%

Cc1cc(C#N)cc(C)c1Oc1nc(Nc2ccc(C#N)cc2)nc(N)c1Br [etravirine]
Reduction in cellular accumulation (of tetraethylammonium) (SLC22A1 [5]): 22.5%

CC(C)(C)NC(=O)[C@@H]1CN(Cc2cccnc2)CCN1C[C@@H](O)C[C@@H](Cc1ccccc1)C(=O)N[C@H]1c2ccccc2C[C@H]1O [indinavir]
Effect on tetraethylammonium accumulation in SLC22A1-overexpressing Hela cells (SLC22A1 [6]): able to reduce tetraethylammonium accumulation

Nc1ccn([C@@H]2CS[C@H](CO)O2)c(=O)n1 [lamivudine]
SLC22A1 inhibition in vitro (SLC22A1 [1]): significant inhibition

Cc1c(O)cccc1C(=O)N[C@@H](CSc1ccccc1)[C@H](O)CN1C[C@H]2CCCC[C@H]2C[C@H]1C(=O)NC(C)(C)C [nelfinavir]
Effect on tetraethylammonium accumulation in SLC22A1-overexpressing Hela cells (SLC22A1 [6]): able to reduce tetraethylammonium accumulation
SLC22A1 inhibition in vitro (SLC22A1 [1]): inhibited

Cc1ccnc2c1NC(=O)c1cccnc1N2C1CC1 [nevirapine]
Reduction in cellular accumulation (of tetraethylammonium) (SLC22A1 [5]): 24.5%

COc1cc2nc(N3CCN(C(=O)c4ccco4)CC3)nc(N)c2cc1OC [prazosin]
Reduction in cellular tetraethylammonium accumulation (SLC22A1 [4]; 100 μM inhibitor, SLC22A1-overexpressing KCL22 cells): 84%
TEA accumulation when 100 μM inhibitor used (%compared to inhibitor-free control) (SLC22A1 [4]; [7]): 16.1%
IC50 (SLC22A1 [4]; read-out: Absolute IC50): 2.8 µM
IC50 (SLC22A1 [4]; read-out: Relative IC50): 2.3 µM

Cc1nnc(C(=O)NC(C)(C)c2nc(C(=O)NCc3ccc(F)cc3)c(O)c(=O)n2C)o1 [raltegravir]
Tetraethylammonium concentration in cells after 30 min incubation (SLC22A1 [5]): 9.6 ± 1.4 µM

Cc1cc(/C=C/C#N)cc(C)c1Nc1ccnc(Nc2ccc(C#N)cc2)n1 [rilpivirine]
Reduction in cellular accumulation (of tetraethylammonium) (SLC22A1 [5]): 41.2%

CC(C)c1nc(CN(C)C(=O)N[C@H](C(=O)N[C@@H](Cc2ccccc2)C[C@H](O)[C@H](Cc2ccccc2)NC(=O)OCc2cncs2)C(C)C)cs1 [ritonavir]
Effect on tetraethylammonium accumulation in SLC22A1-overexpressing Hela cells (SLC22A1 [6]): able to reduce tetraethylammonium accumulation
SLC22A1 inhibition in vitro (SLC22A1 [1]): inhibited

CC(C)(C)NC(=O)[C@@H]1C[C@@H]2CCCC[C@@H]2CN1C[C@@H](O)[C@H](Cc1ccccc1)NC(=O)[C@H](CC(N)=O)NC(=O)c1ccc2ccccc2n1 [saquinavir]
Effect on tetraethylammonium accumulation in SLC22A1-overexpressing Hela cells (SLC22A1 [6]): able to reduce tetraethylammonium accumulation

CC[N+](CC)(CC)CC [tetraethylammonium]
Amount of substrate in SLC22A1-overexpressing cells subjected to prazosin compared to SLC22A1-overexpressing cells (% less) (SLC22A1 [2]; KCL22 cells, 100 μM prazosin, efavirenz 20 μM, darunavir 20 μM, tetraethylammonium 1 μM): 76%
Amount of substrate in mock-transfected cells compared to SLC22A1-overexpressing cells (% less) (SLC22A1 [2]; KCL22 cells, efavirenz 20 μM, darunavir 20 μM, tetraethylammonium 1 μM): 92%
Tetraethylammonium cellular accumulation in mock transfected control KCL22 cells (SLC22A1 [5]; tetraethylammonium 5.5 μM, 30 min, no inhibitor, mean ± SD, n = 3): 0.3 ± 0.04 µM and 0.3 ± 0.004 µM
Tetraethylammonium cellular accumulation in SLC22A1-overexpressing KCL22 cells (SLC22A1 [5]; tetraethylammonium 5.5 μM, 30 min, no inhibitor, mean ± SD, n = 9): 10.6 ± 0.8 µM

Cc1cn([C@H]2C[C@H](N=[N+]=[N-])[C@@H](CO)O2)c(=O)[nH]c1=O [zidovudine]
Tetraethylammonium concentration in cells after 30 min incubation (SLC22A1 [5]): 8.5 ± 3.1 µM

— publication PMC4392609, “Interactions of antiretroviral drugs with the SLC22A1 (OCT1) drug transporter” (Frontiers in Pharmacology, 2015)
